Assay results as given in patent US20230098202A1 (priority 2020, published 2023).
Like-named read-outs stand apart in the source and are kept apart here.

Experiments:
[1] = test system: Pseudomonas syringae; type: cell-based
[2] = test system: Puccinia sorghi; type: cell-based; details: 25 ppm
[3] = test system: Pythium aphanidermatum; type: cell-based
[4] = test system: Rhizoctonia solani; type: cell-based
[5] = test system: Phytophthora infestans; type: cell-based; details: Phytophthora infestans on tomato leaf discs; activity grade x repeats/12 x100
[6] = test system: Puccinia triticina; assay: In planta validation in wheat infected with leaf rust, growth chamber; type: in vivo, Puccinia triticina on wheat; details: sprayed a day before inoculation
[7] = test system: Puccinia sorghi; assay: In planta validation: Puccinia sorghi infection of corn seedlings; type: in vivo, Puccinia sorghi on corn; details: controlled growth conditions, growth rooms, spraying
Method: • 1) Use: 120×80×80 mm pots, standard garden soil with fertilizer and corn seeds of a rust sensitive variety. • 2) Put pots in a tray and fill the pots with the soil to the top. • 3) Make a small grove for the seeds. • 4) Plant about 10 seeds of corn in each pot. • 5) Cover the seeds with additional soil. • 6) Add water into the tray—about 100 ml for each pot (fill the tray 3 times). • 7) Grow the corn for 8 days in growth room at 22° C. (until the second leaf is emerged). B. Preparation of Spore Suspension [from Corn Leaves] for Inoculation • 1) Insert 20 infected corn leaves with spores into a sterile 50-ml tube. • 2) Add 50 ml of cold 0.05% Tween® 20 solution. • 3) Insert the tube into a sealed, ice cold plastic box. • 4) Shake the box using a shaker for 15 min at 3000 RPM. • 5) Transfer the suspension (without the leaves) into a clean sterile 50-ml tube. • 6) Filter the spore suspension through 16 layers of gauze into another sterile 50-ml tube. • 7) Keep the tube with the spore suspension on ice. • 8) Wash and concentrate the spores on a 5-micron membrane filter. Wash 4 times with ice-cold sterile water and collect the spores in 0.05% Tween® 20 solution. • 9) For inoculation, dilute the spore suspension to get spore concentration of 8000 spores/ml using cold 0.05% Tween® 20 solution. […]

[8] = test system: Phytophthora infestans; details: n = 10

SMILES	Relative Activity value (%) [1]	Relative Activity value (%) [2]	Relative Activity value (%) [3]	Relative Activity value (%) [4]	Relative Activity value (%) [5]	average efficacy in preventing and controlling Puccinia triticina ([6]; 200 ppm)	average efficacy in preventing and controlling Puccinia triticina ([6]; 400 ppm)	efficacy in preventing and controlling Puccinia sorghi in corn plants (in words) [7]	Mean leaf surface area (0-3) covered by Phytophthora ([8]; Exp. 487, 200 ppm in 0.1% base (pH = 6) + Silwet 0.005%, not treated 2.6)	Mean leaf surface area (0-3) covered by Phytophthora ([8]; Exp. 487, 200 ppm in DMSO 6% + Silwet 0.005%, 0=clear, 3=high coverage, not treated 2.6)	Mean leaf surface area (0-3) covered by Phytophthora ([8]; Exp. 492, 200 ppm in 0.1% base (pH = 6) + Silwet 0.005%, not treated 3)	Mean leaf surface area (0-3) covered by Phytophthora ([8]; Exp. 492, 200 ppm in DMSO 6% + Silwet 0.005%, not treated 3)	Mean leaf surface area (0-3) covered by Phytophthora ([8]; Exp. 500, 200 ppm in 0.1% base (pH = 6) without Silwet, not treated 3)
COc1cc2c(cc1O)[C@@H](c1ccc(O)c(O)c1)[C@H](C)[C@H](C)C2 [Compound 2, 4-((1R,2R,3R)-7-hydroxy-6-methoxy-2,3-dimethyl-1,2,3,4-tetrahydronaphthalen-1-yl)benzene-1,2-diol]	14%	50%	20%	14%	–	–	–	–	–	–	–	–	–
C[C@H]1[C@H](c2ccc(O)c(O)c2)c2cc(O)c(O)cc2C[C@H]1C [Compound 1, (5R,6R,7R)-5-(3,4-dihydroxyphenyl)-6,7-dimethyl-5,6,7,8-tetrahydronaphthalene-2,3-diol]	14%	50%	100%	50%	25%	95.17%	97.06%	very good efficacy	–	–	–	–	–
CN[C@H]1CCC(c2ccc(Cl)c(Cl)c2)c2ccccc21.Cl (stereo in doubt) [Compound 3, (1S,4R)-4-(3,4-dichlorophenyl)-N-methyl-1,2,3,4-tetrahydronaphthalen-1-aminium chloride]	–	–	–	–	–	–	–	–	0.7	0.1	0.3	0.4	0.8
